Test: xn = mol fraction of the nth substance listed
Details: for surface tension liquid-gas: roughened platinum plate-detachment; for viscosity / mass density: 101 kPa, Liquid; for viscosity: Capillary tube (Ostwald / Ubbelohde) method; for mass density: Vibrating tube method

CN(C)CCCO [3-dimethylamino-1-propanol] + O
Details	mass density [kg/m3]	surface tension liquid-gas [mN/m]	viscosity [mPa·s]
298.15 K, x1 = 0.0979	–	36.93	–
298.15 K, x1 = 0.1002	978.93	–	6.617
298.15 K, x1 = 0.1971	–	35.21	–
298.15 K, x1 = 0.201	960.36	–	14
298.15 K, x1 = 0.2927	–	33.39	–
298.15 K, x1 = 0.297	943.21	–	19.6
298.15 K, x1 = 0.3979	–	32.02	–
298.15 K, x1 = 0.4001	929.16	–	20.8
298.15 K, x1 = 0.4996	–	31.04	–
298.15 K, x1 = 0.5013	917.07	–	19.5
298.15 K, x1 = 0.5975	–	30.56	–
298.15 K, x1 = 0.6019	907.19	–	15.1
298.15 K, x1 = 0.6939	899.28	–	12.3
298.15 K, x1 = 0.6998	–	29.87	–
298.15 K, x1 = 0.7946	–	29.33	–
298.15 K, x1 = 0.8006	891.51	–	9.402
298.15 K, x1 = 0.8989	885.51	–	7.474
298.15 K, x1 = 0.8997	–	28.22	–
298.15 K, x1 = 1	880.25	29.01	5.839
303.15 K, x1 = 0.0979	–	34.56	–
303.15 K, x1 = 0.1002	975.53	–	5.319
303.15 K, x1 = 0.1971	–	34.17	–
303.15 K, x1 = 0.201	956.53	–	10.8
303.15 K, x1 = 0.2927	–	31.4	–
303.15 K, x1 = 0.297	939.37	–	14.4
303.15 K, x1 = 0.3979	–	31.61	–
303.15 K, x1 = 0.4001	925.16	–	15.9
303.15 K, x1 = 0.4996	–	30.59	–
303.15 K, x1 = 0.5013	913.1	–	15.6
303.15 K, x1 = 0.5975	–	29.91	–
303.15 K, x1 = 0.6019	903.25	–	11.9
303.15 K, x1 = 0.6939	895.35	–	9.94
303.15 K, x1 = 0.6998	–	29.34	–
303.15 K, x1 = 0.7946	–	28.87	–
303.15 K, x1 = 0.8006	887.57	–	7.954
303.15 K, x1 = 0.8989	881.52	–	6.226
303.15 K, x1 = 0.8997	–	27.64	–
303.15 K, x1 = 1	876.46	29.28	4.963
308.15 K, x1 = 0.0979	–	32.51	–
308.15 K, x1 = 0.1971	–	32.13	–
308.15 K, x1 = 0.2927	–	30.61	–
308.15 K, x1 = 0.3979	–	30.51	–
308.15 K, x1 = 0.4996	–	30.2	–
308.15 K, x1 = 0.5975	–	29.3	–
308.15 K, x1 = 0.6998	–	28.72	–
308.15 K, x1 = 0.7946	–	28.45	–
308.15 K, x1 = 0.8997	–	26.42	–
308.15 K, x1 = 1	–	28.88	–
313.15 K, x1 = 0.0979	–	32.02	–
313.15 K, x1 = 0.1002	968.53	–	3.808
313.15 K, x1 = 0.1971	–	31.26	–
313.15 K, x1 = 0.201	948.48	–	7.433
313.15 K, x1 = 0.2927	–	29.79	–
313.15 K, x1 = 0.297	931.17	–	10.2
313.15 K, x1 = 0.3979	–	30.12	–
313.15 K, x1 = 0.4001	916.99	–	11
313.15 K, x1 = 0.4996	–	29.33	–
313.15 K, x1 = 0.5013	905.01	–	10.7
313.15 K, x1 = 0.5975	–	28.76	–
313.15 K, x1 = 0.6019	895.21	–	8.899
313.15 K, x1 = 0.6939	887.38	–	7.649
313.15 K, x1 = 0.6998	–	28.23	–
313.15 K, x1 = 0.7946	–	27.82	–
313.15 K, x1 = 0.8006	879.6	–	6.319
313.15 K, x1 = 0.8989	873.52	–	5.192
313.15 K, x1 = 0.8997	–	26.23	–
313.15 K, x1 = 1	868.42	28.47	4.266
318.15 K, x1 = 0.0979	–	30.72	–
318.15 K, x1 = 0.1971	–	29.83	–
318.15 K, x1 = 0.2927	–	28.55	–
318.15 K, x1 = 0.3979	–	29.78	–
318.15 K, x1 = 0.4996	–	28.69	–
318.15 K, x1 = 0.5975	–	28.51	–
318.15 K, x1 = 0.6998	–	27.87	–
318.15 K, x1 = 0.7946	–	27.54	–
318.15 K, x1 = 0.8997	–	25.6	–
318.15 K, x1 = 1	–	28.13	–
323.15 K, x1 = 0.0979	–	28.2	–
323.15 K, x1 = 0.1002	961.28	–	2.743
323.15 K, x1 = 0.1971	–	29.54	–
323.15 K, x1 = 0.201	940.25	–	4.975
323.15 K, x1 = 0.2927	–	28.28	–
323.15 K, x1 = 0.297	922.77	–	6.606
323.15 K, x1 = 0.3979	–	28.91	–
323.15 K, x1 = 0.4001	908.62	–	7.162
323.15 K, x1 = 0.4996	–	28.65	–
323.15 K, x1 = 0.5013	896.72	–	7.031
323.15 K, x1 = 0.5975	–	27.57	–
323.15 K, x1 = 0.6019	887.02	–	6.036
323.15 K, x1 = 0.6939	879.25	–	5.28
323.15 K, x1 = 0.6998	–	27.36	–
323.15 K, x1 = 0.7946	–	27.1	–
323.15 K, x1 = 0.8006	871.47	–	4.526
323.15 K, x1 = 0.8989	865.41	–	3.848
323.15 K, x1 = 0.8997	–	25.43	–
323.15 K, x1 = 1	860.29	27.63	3.253
333.15 K, x1 = 0.0979	–	26.75	–
333.15 K, x1 = 0.1002	953.71	–	2.169
333.15 K, x1 = 0.1971	–	28.32	–
333.15 K, x1 = 0.201	931.78	–	3.514
333.15 K, x1 = 0.2927	–	27.56	–
333.15 K, x1 = 0.297	914.15	–	4.536
333.15 K, x1 = 0.3979	–	27.91	–
333.15 K, x1 = 0.4001	900.04	–	4.707
333.15 K, x1 = 0.4996	–	27.54	–
333.15 K, x1 = 0.5013	888.25	–	4.797
333.15 K, x1 = 0.5975	–	26.74	–
333.15 K, x1 = 0.6019	878.64	–	4.286
333.15 K, x1 = 0.6939	870.93	–	3.831
333.15 K, x1 = 0.6998	–	26.36	–
333.15 K, x1 = 0.7946	–	26.32	–
333.15 K, x1 = 0.8006	863.22	–	3.369
333.15 K, x1 = 0.8989	857.19	–	2.94
333.15 K, x1 = 0.8997	–	24.76	–
333.15 K, x1 = 1	852.1	26.81	2.768
343.15 K, x1 = 0.1002	945.85	–	1.686
343.15 K, x1 = 0.201	923.1	–	2.575
343.15 K, x1 = 0.297	905.31	–	3.262
343.15 K, x1 = 0.4001	891.27	–	3.498
343.15 K, x1 = 0.5013	879.56	–	3.428
343.15 K, x1 = 0.6019	870.06	–	3.147
343.15 K, x1 = 0.6939	862.44	–	2.861
343.15 K, x1 = 0.8006	854.81	–	2.579
343.15 K, x1 = 0.8989	848.84	–	2.322
343.15 K, x1 = 1	843.77	–	2.03
